These results are taken from US20250346584A1, “NOVEL KAPPA OPIOID LIGANDS” (The Scripps Research Institute, priority 2012, published 2025).

Broadly, the IC50 is the point on the concentration scale where inhibition reaches its midpoint.

Some results are limits rather than exact numbers.

The target of one experiment is kappa opioid receptor (OPRK1) (Homo sapiens (Human), UniProt P41145). As to the kind of experiment: OPRK1 antagonist assay (b-arrestin-2-TEV / b-lactamase reporter cell line, EC80 U-50488 challenge). Type of experiment: cell-based. Conditions: % inhibition at the concentration given.
kappa opioid receptor (OPRK1), sequence (P41145 whole entry): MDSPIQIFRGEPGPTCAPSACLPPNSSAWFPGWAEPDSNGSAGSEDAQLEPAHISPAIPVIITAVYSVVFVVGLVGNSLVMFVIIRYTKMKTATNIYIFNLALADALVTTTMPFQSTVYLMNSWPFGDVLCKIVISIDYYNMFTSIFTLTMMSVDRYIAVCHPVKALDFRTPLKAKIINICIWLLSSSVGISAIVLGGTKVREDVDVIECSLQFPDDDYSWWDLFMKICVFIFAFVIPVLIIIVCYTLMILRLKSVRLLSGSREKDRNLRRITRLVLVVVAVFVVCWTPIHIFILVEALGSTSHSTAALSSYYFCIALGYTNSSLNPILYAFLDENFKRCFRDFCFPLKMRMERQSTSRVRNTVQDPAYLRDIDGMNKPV
Turning to `COC(=O)c1cc(Br)cnc1N1CCC(NCCO)CC1` [compound 6], the “% inhib if other than 50%” value was determined as 80%.

Still in this experiment, the particulars now being: read-out: IC50 nM (% inhib if other than 50%); antagonist mode vs EC80 U-50488; NA = not active at concentrations up to 10 μM.
With `COC1CN(c2nc(C)c(C)cc2-c2nc(C)no2)CCC1NCC(C)C` (stereo not drawn) [compound 378], the IC50 came to 256 nM.

`Cc1cnc(N2CC[C@@H](NC3CCCCC3)[C@H](O)C2)c(-c2ncccn2)c1` [compound 244]: the IC50 is 566 nM.

As to `Cc1cnc(N2CCC(NC3CCOCC3)CC2)c(-c2cnc(C)cn2)c1` [compound 473], the half-maximal inhibitory concentration (IC50) was 3210 nM.

In the case of `COC(=O)c1cc(Br)cnc1N1CCC(NC2CCCCCC2)C(O)C1` (stereo not drawn) [compound 60], the IC50 was 68 nM.

For the compound `COC(=O)c1cnc(N2CCC(NC3CCCCC3)CC2)c([N+](=O)[O-])c1` [C36], the half-inhibitory concentration (IC50) worked out at 17000 nM.

Turning to `CCOC(=O)c1cc2cc(C)ccc2nc1N1CCC(NC2CCCCC2)C(CO)C1` (stereo not drawn) [compound 288], the half-maximal inhibitory concentration (IC50) was determined as 15 nM.

In the case of `CCOC(=O)c1nc2cc(C)ccc2nc1N1CCC(NC2CCCCC2)C(OC)C1` (stereo not drawn) [compound 353], the IC50 was 23 nM.

In the case of `Cc1noc(-c2cc3cc(F)ccc3nc2N2CC[C@@H](NC3CCCCC3)[C@H](O)C2)n1` [compound 241], the IC50 was 59 nM.

Turning to `COC(=O)c1cc(C)ccc1N1CCC(NC2CCCCC2)C(OC)C1` (stereo not drawn) [compound 539], the IC50 turned out to be 3700 nM.

For `COC(=O)c1cc(C)c(C)nc1N1CCC(NC2CCCCC2)C(CO)C1` (stereo not drawn) [compound 162], the IC50 worked out at 1400 nM.

With `COC1CN(c2nc(C)c(C)cc2-c2nc(C)no2)CCC1NC1CCOCC1` (stereo not drawn) [compound 321], the IC50 was 105 nM.

On to `CCc1noc(-c2cc3cc(C)ccc3nc2N2CCC(NC3CCOCC3)C(OC)C2)n1` (stereo not drawn) [compound 327], for which the IC50 turned out to be 5.6 nM.

With `Cc1noc(-c2cc(C(F)(F)F)cnc2N2CC[C@@H](NC3CCCCC3)[C@H](O)C2)n1` [compound 173], the IC50 amounted to 1200 nM.

For `Cc1cnc(-c2cc3ccccc3nc2N2CCC(NC3CCCCC3)CC2)cn1` [compound 466], the IC50 stood at 24 nM.

For `Cc1noc(-c2cc3ccc(Cl)cc3nc2N2CCC(NCC(C)C)CC2)n1` [compound 541], the IC50 was determined as 45 nM.

In the case of `COC(=O)c1cc(Cl)cnc1N1CCC(NC2CCCCC2)C(CO)C1` (stereo not drawn) [compound 70], the half-maximal inhibitory concentration (IC50) stood at 110 nM.

For the compound `CCOC(=O)c1nc2cc(C)ccc2nc1N1CCC(NC2CCCCC2)C(CO)C1` (stereo not drawn) [compound 373], the IC50 was determined as 63 nM.

Turning to `COC(=O)c1cccnc1N1CCC(NC2CCCCC2)C(O)C1` (stereo not drawn) [compound 57], the IC50 is 2200 nM.

As to `COC1CN(c2nc3ccc(C)cc3cc2-c2nc(C)no2)CCC1NC1CCCCC1F` (stereo not drawn) [compound 249], the IC50 stood at 9 nM.

For `COC(=O)c1cc(Br)cnc1N1CCC(NCCO)CC1` [compound 6], the IC50 is 9200 nM.

With `CCc1noc(-c2cc3cc(C)ccc3nc2N2CCC(NC3CCCCC3)C(CO)C2)n1` (stereo not drawn) [compound 284], the IC50 was determined as 20 nM.

As to `COC(=O)c1cc(Cl)cnc1N1CC[C@H](NC2CCCCC2)[C@@H](O)C1` [compound 111], the half-inhibitory concentration (IC50) was determined as 281 nM.

As to `COC(=O)c1cc(Br)cnc1N1CCC(NC2CCCCC2)C(C(=O)OC)C1` (stereo not drawn) [compound 116], the IC50 worked out at 793 nM.

In the case of `Cc1noc(-c2cc3ccccc3nc2N2CC[C@@H](NC3CCCCC3)[C@H](O)C2)n1` [compound 172], the IC50 came to 22 nM.

Consider `CCOC(=O)c1cc(C(=O)OC)c(C)nc1N1CC[C@@H](NC2CCCCC2)[C@H](O)C1` [compound 119], for which the IC50 was found to be 12 nM.

On to `COC1CN(c2nc3ccccc3nc2-c2nc(C)no2)CCC1NC1CCCCC1` (stereo not drawn) [compound 190], for which the IC50 turned out to be 57 nM.

Turning to `CCCC(C)NC1CCN(c2nc3ccc(C)cc3cc2-c2noc(C)n2)CC1` (stereo not drawn) [compound 453], the IC50 was 85 nM.

On to `Cc1cnc(-c2cc(C)cnc2N2CCC(NC3CCCCC3)CC2)nc1` [compound 406], for which the IC50 turned out to be 7680 nM.

As for `Cc1cnc(N2CCC(NC3CCCCC3)C(C)C2)c(-c2nc(C)no2)c1` (stereo not drawn) [compound 194], the IC50 came out at 180 nM.

Consider `COC(=O)c1cc(Br)cnc1N1CCC(NC2CCCCCC2)C(C(=O)OC)C1` (stereo not drawn) [compound 118], for which the IC50 was 661 nM.

For `COC(=O)c1cc(Br)cnc1N1CCC(NC2CCCCC2OC)C(O)C1` (stereo not drawn) [compound 59], the IC50 came to 36 nM.

For the compound `CCOC(=O)c1cc(C)c(C)nc1N1CCC(NC2CCCCC2)C(CO)C1` (stereo not drawn) [compound 159], the IC50 was 35 nM.

In the case of `COC1CN(c2ncc(Br)cc2-c2nc(C)no2)CCC1NC1CCCCC1` (stereo not drawn) [compound 143], the IC50 worked out at 100 nM.

As to `COC1CN(c2nc(C)c(C)cc2-c2nc(C)no2)CCC1NC1CCCCC1` (stereo not drawn) [compound 178], the IC50 stood at 483 nM.

`CO[C@H]1CN(c2nc3ccccc3cc2-c2nc(C)no2)CC[C@H]1NC1CCCCC1` [compound 295]: the IC50 is 2 nM.

Consider `CCOC(=O)/C=C/c1cnc(N2CCC(NC3CCCCC3)CC2)c(C(=O)OC)c1` [C59], for which the IC50 is over 20000 nM.

Turning to `Cc1nc(-c2cc3ccc(F)cc3nc2N2CCC(NC3CCCC3)CC2)no1` [compound 481], the IC50 was determined as 10 nM.

With `COC(=O)c1cc(Br)cnc1N1CCC(N[C@@H]2CCCCC[C@H]2O)CC1` [compound 27], the IC50 was determined as 473 nM.

For the compound `Cc1nc(-c2cc3cc(F)ccc3nc2N2CCC(N[C@@H]3CCCC[C@H]3O)CC2)no1` [compound 475], the IC50 came to 101 nM.

As to `Cc1ccc2cc(-c3nc(C)no3)c(N3CCC(NC4CCCCC4)C(CO)C3)nc2c1` (stereo not drawn) [compound 229], the IC50 came out at 5 nM.

For the compound `COC(=O)c1cc(Br)cnc1N1CCC(NC2CCCC2O)CC1` (stereo not drawn) [compound 3], the half-inhibitory concentration (IC50) is 287 nM.

In the case of `COC(=O)c1cc(Br)cnc1N1CC(O)C(NC2CCCCC2)C(O)C1` (stereo not drawn) [compound 62], the IC50 is 2700 nM.

For the compound `COC1CN(c2ncc(C)cc2-c2ncco2)CCC1NC1CCCCC1` (stereo not drawn) [C70], the concentration for half-maximal inhibition (IC50) stood at 17000 nM.

As to `CCOC(=O)c1cc2cc(C)ccc2nc1N1CCC(NC2CCCCC2)C(OC)C1` (stereo not drawn) [compound 281], the IC50 is 30 nM.

As to `Cc1ccc2nc(N3CCC(NC4CCCCCCC4)CC3)c(-c3nc(C)no3)cc2c1` [compound 260], the IC50 stood at 261 nM.

Turning to `COC(=O)c1cccnc1N1CCC(NC2CCOCC2)C(O)C1` (stereo not drawn) [compound 56], the IC50 was 7000 nM.

As to `COC1CN(c2nc3ccc(C)cc3cc2-c2nc(C)no2)CCC1NC1CCCCCC1` (stereo not drawn) [compound 312], the half-inhibitory concentration (IC50) was 0.7 nM.

For `Cc1ccc2nc(N3CCC(NC4CC(C)OC(C)C4)CC3)c(-c3nc(C)no3)cc2c1` (stereo not drawn) [compound 274], the IC50 was 50 nM.

With `COC(=O)c1cc(Br)cnc1N1CCC(NC2CCC(C)CC2)CC1` (stereo not drawn) [compound 16], the IC50 is 536 nM.

With `Cc1nc(-c2cc3cc(C)c(F)cc3nc2N2CCC(NC3CCCC3)CC2)no1` [compound 512], the IC50 came to 12 nM.

For the compound `Cc1cnc(N2CCC(NC3CCOCC3)C(CO)C2)c(-c2nc(C)no2)c1` (stereo not drawn) [compound 195], the IC50 stood at 700 nM.

Regarding `COC1CN(c2nc3c(cc2-c2nc(C)no2)CCCC3)CCC1NC1CCCCC1` (stereo not drawn) [compound 193], the IC50 was found to be 729 nM.

`CCOC(=O)c1cc(Br)cnc1N1CCC(NC2CCCCC2)C(OC)C1` (stereo not drawn) [compound 146]: the IC50 was 85 nM.

With `CO[C@H]1CN(c2nc(C)c(C)cc2-c2nc(C)no2)CC[C@H]1NC1CCCCC1` [compound 300], the IC50 turned out to be 16 nM.

On to `COC1CN(c2nc3ccc(C)cc3cc2C(=O)N(C)C)CCC1NC1CCCCC1` (stereo not drawn) [compound 279], for which the IC50 turned out to be 96 nM.

In the case of `Cc1noc(-c2cc3cc(F)ccc3nc2N2CCC(NC3CCOCC3)CC2)n1` [compound 476], the IC50 turned out to be 430 nM.

`CC(C)OC(=O)c1cc(Br)cnc1N1CCC(NC2CCCCC2)CC1` [compound 39]: the IC50 is 398 nM.

Regarding `Cc1noc(-c2cc3ccccc3nc2N2CCC(NC3CCCC3)C(CO)C2)n1` (stereo not drawn) [compound 205], the IC50 turned out to be 17 nM.

Turning to `Cc1ccc2nc(N3CCC(NC4CCCCC4)C(CO)C3)c(-c3nnc(C)o3)cc2c1` (stereo not drawn) [compound 301], the IC50 worked out at 38 nM.

For the compound `CCc1ccc2nc(N3CCC(NC4CCCCC4)C(OC)C3)c(-c3nc(C)no3)cc2c1` (stereo not drawn) [compound 268], the IC50 amounted to 37 nM.

Take `Cc1nc(-c2cc3ccc(F)cc3nc2N2CCC(NC3CCCCC3)CC2)no1` [compound 480]: the IC50 came to 8 nM.

As for `COC(=O)c1cc2ccccc2nc1N1CCC(NC2CCCCC2)C(OC)C1` (stereo not drawn) [compound 158], the IC50 amounted to 431 nM.

Take `COC(=O)c1cc(Br)cnc1N1CCC(N(C)C2CCCCC2)CC1` [compound 19]: the IC50 is 2700 nM.

For the compound `COC(=O)c1cc(I)cnc1N1CCC(NC2CCCCC2)C(CO)C1` (stereo not drawn) [compound 77], the IC50 stood at 11 nM.

Take `COC(=O)c1cc(C)c(C)nc1N1CCC(NC2CCCCC2)C(OC)C1` (stereo not drawn) [compound 163]: the IC50 was determined as 915 nM.

For `CCc1ccc2nc(N3CCC(NC4CCCCC4)C(CO)C3)c(-c3nc(C)no3)cc2c1` (stereo not drawn) [compound 269], the IC50 turned out to be 30 nM.

As to `COC1CN(c2nc3ccc(C)cc3cc2-c2nc(C)no2)CCC1NC1CCCCC1` (stereo not drawn) [compound 214], the IC50 is 3 nM.

For the compound `Cc1nc(-c2cc3cc(C)c(F)cc3nc2N2CCC(NCC(C)C)CC2)no1` [compound 513], the half-inhibitory concentration (IC50) worked out at 27 nM.

With `Cc1noc(-c2cc(C3CC3)cnc2N2CC[C@@H](NC3CCCCC3)[C@H](O)C2)n1` [compound 155], the IC50 came to 1300 nM.

On to `CCOC(=O)c1noc(-c2cc3cc(C)ccc3nc2N2CCC(NC3CCCCC3)C(CO)C2)n1` (stereo not drawn) [C91], for which the IC50 was 17700 nM.

In the case of `COC(=O)c1cc(Cl)cnc1N1CCC(NC2CCCCC2)CC1` [compound 40], the IC50 stood at 159 nM.

As to `Cc1noc(-c2cc3ccccc3nc2N2CCC(NC3CCOC3)CC2)n1` (stereo not drawn) [compound 236], the half-maximal inhibitory concentration (IC50) worked out at 20 nM.

As for `Cc1cc(-c2nc(C)no2)c(N2CC[C@@H](NC3CCCCC3)[C@H](O)C2)nn1` [compound 175], the IC50 amounted to 46 nM.

For the compound `COC(=O)c1cc(Br)cnc1N1CCC(NC2CCCCC2OC)C(CO)C1` (stereo not drawn) [compound 82], the concentration for half-maximal inhibition (IC50) stood at 127 nM.

Regarding `Cc1noc(-c2cc3ccccc3nc2N2CCC(NC3CCCCC3)C(F)C2)n1` (stereo not drawn) [compound 204], the IC50 came out at 52 nM.

In the case of `COC(=O)c1cc(Br)cnc1N1CCC(NC2CCCCCCC2)CC1` [compound 21], the IC50 came out at 317 nM.

In the case of `Cc1ccc2nc(N3CCC(NCC4CCCO4)CC3)c(-c3nc(C)no3)cc2c1` (stereo not drawn) [compound 262], the IC50 was 60 nM.
